Experimental data published in patent publication US20050176584A1, “Mehtod for high throughput screening of plant growth regulator” (Korea Research Institute of Bioscience and Biotechnology, priority 2002, published 2005).

Legend:
[1] = test system: Marchantia polymorpha L. photomixotrophic cells; test: TTC high throughput screening of cell growth in microwell plate; assay type: cell-based; settings: for effect of natural compounds on cell growth, in words: 1 ppm; for growth inhibition activities (IC50) to Marchantia polymorpha L. photomixotrophic cells: TTC analysis
Lemna paucicostata = Lemna paucicostata growth inhibition in 24 well plate; settings: for inhibition at 31 ppm: Lemna aequinoctialis, 120 h, read-out: Lemna paucicostata (% activity)
[2] = test system: Nicotiana tabacum cv. (BY4) photomixotrophic cells; test: TTC analysis of growth inhibition, tobacco photomixotrophic cells; assay type: cell-based
Method: As Nicotiana tabacum cv. (BY4) photomixotrophic cells, the cells developed as NaCl resistance cells by Cha et al. (Cha et al., Korean J Bot, -36: 113-120, 1993) were used. For the culture of the above cells, MS minimal medium where 0.7 mg/l of 2,4-D and 0.03 mg/l of kinetin were added was used. 2 g of Nicotiana tabacum cv. […] The cells were sub-cultured at intervals of 14 days. The investigation procedure of cell viability in a 96 microwell plate of the present invention is precisely explained as follows. 1) Treating 150 μl of TTC solution into each well wherein cells are being cultured. 2) Five hours after treating TTC, removing the solution in wells with a 8-channel multi-pipette. 3) Adding 150 μl of 95% ethanol to the remaining cells of each well, and then reacting thereof at 60° C. for 1 hour. 4) After reaction finished, transferring the reacting solution into a new 96 well plate. 5) Measuring the optical density of the well plate at 490 nm wave length with a high throughput screening (HTS) reader. The explained method of the present invention is called high throughput screening. […] Oryza sativa L. cv (Taebaegbyeo) heterotrophic cells used in this experiment were developed from premature embryo (Korean J Plant Tissue Culture, 18: 209-214, 1991).

[3] = test system: Oryza sativa L. cv (Taebaegbyeo) heterotrophic cells; test: TTC analysis of growth inhibition, rice heterotrophic cells; assay type: cell-based; settings: for growth inhibition activities (IC50) to Oryza sativa L. cv (Taebaegbyeo) heterotrophic cells: TTC analysis; for growth inhibiting activity to non-photomixotrophic (heterotrophic) cells, in words: 10 ppm
Method: Other culture conditions were same as those for Marchantia polymorpha L. photomixotrophic cell culture. The investigation procedure of cell viability in a 96 microwell plate of the present invention is precisely explained as follows. 1) Treating 150 μl of TTC solution into each well wherein cells are being cultured. 2) Five hours after treating TTC, removing the solution in wells with a 8-channel multi-pipette. 3) Adding 150 μl of 95% ethanol to the remaining cells of each well, and then reacting thereof at 60° C. for 1 hour. 4) After reaction finished, transferring the reacting solution into a new 96 well plate. 5) Measuring the optical density of the well plate at 490 nm wave length with a high throughput screening (HTS) reader. The explained method of the present invention is called high throughput screening. […] Oryza sativa L. cv (Taebaegbyeo) heterotrophic cells used in this experiment were developed from premature embryo (Korean J Plant Tissue Culture, 18: 209-214, 1991).

[4] = Marchantia polymorpha, natural compounds, final concentration 1 ppm, + inhibiting, − promoting

Row | Compound | inhibition at 1 ppm [1, 4] | inhibition at 31 ppm (Lemna paucicostata) | growth inhibition activities (IC50) to Nicotiana tabacum cv. (BY4) photomixotrophic cells [2] | growth inhibition activities (IC50) to Marchantia polymorpha L. photomixotrophic cells ([1]; 96 well plate) | growth inhibition activities (IC50) to Oryza sativa L. cv (Taebaegbyeo) heterotrophic cells [3] | also measured
1 | O=C1COc2ccccc21 [3-Coumaranone] | -18% | 0% | – | – | – | effect of natural compounds on cell growth, in words [1]: growth promoting activity
2 | CC(C)C1(C)N=C(c2ncccc2C(=O)O)NC1=O (stereo not shown) [Amazapyr] | – | – | 0.018 ppm | 0.35 ppm | 0.269 ppm | –
3 | CCNc1nc(Cl)nc(NC(C)C)n1 [Atrazine] | – | – | 0.18 ppm | 0.21 ppm | >10 ppm | intracellular formazan content ([1]; 12 well plate, different concentrations, 1 and 5 hours after TTC): decreased dose-dependently; content that can inhibit cell growth upto about 50% ([1]; 96 well plate, TTC 5 hours): 0.18 ppm; IC50 ([1]; Marchantia polymorpha, 96 well plate, TTC 5 hours, read-out: content that can inhibit cell growth upto about 50%): 0.68 µM; growth inhibiting activity to non-photomixotrophic (heterotrophic) cells, in words [3]: low growth inhibiting activity or almost none
4 | O=C(O)c1ccccc1 [Benzoic acid] | – | 10% | – | – | – | –
5 | O=C(O)/C=C/c1ccc(O)c(O)c1 [Caffeic acid] | 21% | 30% | – | – | – | –
6 | COc1cc(Oc2ccc(Cl)cc2Cl)ccc1[N+](=O)[O-] [Chloromethoxynil] | – | – | 0.193 ppm | 0.076 ppm | >10 ppm | growth inhibiting activity to non-photomixotrophic (heterotrophic) cells, in words [3]: low growth inhibiting activity or almost none
7 | O=c1ccc2ccccc2o1 [Coumarin] | 33% | 80% | – | – | – | –
8 | O=c1oc2ccccc2c(O)c1Cc1c(O)c2ccccc2oc1=O [Dicumarol] | -31% | 30% | – | – | – | effect of natural compounds on cell growth, in words [1]: growth promoting activity
9 | O=C(Nc1ccc(F)cc1F)c1cccnc1Oc1cccc(C(F)(F)F)c1 [Diflufenican] | – | – | 4.67 ppm | 0.031 ppm | >10 ppm | growth inhibiting activity to non-photomixotrophic (heterotrophic) cells, in words [3]: low growth inhibiting activity or almost none
10 | CSC(=O)c1c(C(F)F)nc(C(F)(F)F)c(C(=O)SC)c1CC(C)C [Dithiopyr] | – | – | 0.141 ppm | 0.048 ppm | 0.613 ppm | –
11 | COc1cc(/C=C/C(=O)O)ccc1O [Ferulic acid] | -35% | 20% | – | – | – | effect of natural compounds on cell growth, in words [1]: growth promoting activity
12 | O=C(O)c1cc(O)c(O)c(O)c1 [Gallic acid] | 8% | 0% | – | – | – | –
13 | O=C(O)c1cc(O)ccc1O [Gentistic acid] | – | – | – | – | – | Marchantia polymorpha L. photomixotrophic cells (% activity) ([1]; natural compounds, final concentration 1 ppm, + inhibiting, − promoting): 9%; Lemna paucicostata (% activity) (Lemna paucicostata; final concentration 31 ppm, 5 days after treating): 0%
14 | Oc1ccc(O)cc1 [Hydroquinone] | 15% | 0% | – | – | – | –
15 | COCC(=O)OC(c1ncccc1S(=O)(=O)NC(=O)Nc1nc(OC)cc(OC)n1)C(C)F (stereo not shown) [LGC-42153] | – | – | 0.0022 ppm | 0.0011 ppm | 1.793 ppm | –
16 | CON(C)C(=O)Nc1ccc(Cl)c(Cl)c1 [Linurone] | – | – | >10 ppm | 0.244 ppm | 7.07 ppm | –
17 | CC(Oc1ccc2ccccc2c1)C(=O)Nc1ccccc1 (stereo not shown) [Naproanilide] | – | – | 0.0019 ppm | 0.054 ppm | 6.69 ppm | –
18 | CC(C)Oc1cc(-n2nc(C(C)(C)C)oc2=O)c(Cl)cc1Cl [Oxadiazone] | – | – | 0.39 ppm | 0.03 ppm | 6.88 ppm | –
19 | CCOC(=O)[C@@H](C)Oc1ccc(Oc2nc3ccc(Cl)cc3o2)cc1 [Phenoxapro-P-ethyl] | – | – | 4.58 ppm | 0.70 ppm | 6.47 ppm | –
20 | CCOC(=O)c1cnn(C)c1S(=O)(=O)NC(=O)Nc1nc(OC)cc(OC)n1 [Prazolsulfuron-ethyl] | – | – | 0.001 ppm | 0.0012 ppm | 0.066 ppm | –
21 | CCC(=O)Nc1ccc(Cl)c(Cl)c1 [Propanil] | – | – | 5.83 ppm | 0.037 ppm | 8.49 ppm | –
22 | CCOC(=O)c1ccc(O)c(O)c1 [Protocatechuic acid ethyl ester] | 22% | 70% | – | – | – | –
23 | COc1cc(OC)nc(Oc2cccc(Oc3nc(OC)cc(OC)n3)c2C(=O)ON=C(c2ccccc2)c2ccccc2)n1 [Pyribenzoxim] | – | – | 0.0026 ppm | 0.0092 ppm | 7.83 ppm | –
24 | COc1cc2ccc(=O)oc2cc1O [Scopoletin] | 16% | 0% | – | – | – | –
25 | COc1cc(C(=O)O)cc(OC)c1O [Syringic acid] | 16% | 0% | – | – | – | –
26 | O=c1ccc2ccc(O)cc2o1 [Umbelliferone] | 6% | 40% | – | – | – | –
27 | COc1cc(C(=O)O)ccc1O [Vanillic acid] | 10% | 10% | – | – | – | –
28 | O=C(O)/C=C/c1ccccc1O [o-Coumaric acid] | 32% | 30% | – | – | – | –
29 | O=C(O)/C=C/c1ccc(O)cc1 [p-Coumaric acid] | 17% | 30% | – | – | – | –
